Reference: patent US5552267A, “Solution for prolonged organ preservation” (priority 1994, dated 1996)

Experiments:
[1] = test system: cGMP-regulated phosphodiesterases; conditions: cited from earlier work
[2] = test system: neutrophil infiltration of lung graft; assay: lung graft myeloperoxidase assay, cGMP series; assay type: in vivo, rat; conditions: 6 h in EC then transplantation
Protocol: Thirty minutes following restoration of blood flow, transplanted lungs were excised, rinsed briskly in physiologic saline, and snap frozen in liquid nitrogen until the time of assay. These lungs were then homogenized in phosphate buffer (50 mM; pH 6.0, 5 ml/gm of tissue) containing hexadecyltrimethylammonium bromide (0.5%; HTAB, [Sigma]) and frozen at -80° C. The myeloperoxidase assay was performed, as described^32, by thawing the sample, centrifuging at 40,000 g for 15 minutes at 4° C., and decanting the supernatant, which was assayed for myeloperoxidase activity using standard chromogenic spectrophotometric technique: test sample (0.03 ml) was added to sample buffer (0.97 ml of 50 mM phosphate buffer, pH 6.0) containing O-dianisidine dihydrochloride (Sigma), hydrogen peroxide (0.006%), and change in absorbance at 460 nm was measured over 1 min (increase in OD was linear over this time interval).

lung [3] = assay: orthotopic rat left lung transplantation, cGMP series (hemodynamics, oxygenation, recipient survival); assay type: in vivo, rat (male Lewis)
Protocol: Orthotopic rat left lung transplantation was accomplished using inbred male Lewis rats (250-300 gms), using a modification of a previously described technique^29. The donor rat was anesthetized and heparinized (500 U intravenously), and endotracheal intubation was performed by inserting a 16 gauge angiocatheter into the trachea using blunt cervical dissection, after which the rat was ventilated with room air at a constant rate (100 breaths/minute) and tidal volume (2.5 ml), using a Harvard rodent ventilator. […] The pulmonary artery (PA) and pulmonary vein (PV) were divided, the bronchus ligated with the lung partially inflated and then divided, and the lung removed. The vascular stumps were each pulled through a small plastic cylinder, and a lip of vessel was turned back around the edge and secured in place with a suture to form a "cuff." A small plastic cylinder was inserted into the bronchial stump and secured, and the lung was then wrapped in gauze and submerged in cold preservation solution for the desired interval.
The recipient rat (gender/size/strain-matched) was similarly anesthetized and intubated (ventilated with 100% oxygen), but not heparinized. A left thoracotomy was performed, the hilum was dissected, and the left bronchus, PA, and PV were isolated, cross-clamped, divided and the native lung was removed from the field. The PA and PV stumps were rinsed with heparinized saline to remove any clot. The donor lung was brought onto the surgical field, and the cylinder (bronchus) and cuffs (PA and PV) were connected rapidly to their respective structures with a simple staying suture. This cuff technique permitted rapid approximation of donor and recipient tissues with no contact of a foreign substance with the luminal vascular surface. The hilar cross-clamp was released, re-establishing blood flow, and the bronchus tie was removed, enabling gas exchange. A snare was then passed around the right PA, and a Millar catheter (2F; Millar Instruments,Houston, Tex.) was introduced through a small hole (surrounded by a pursestring) into the main PA; similarly, a Millar catheter was introduced into the left atrium (LA). A flow probe (Transonics, Ithaca, N.Y.) was then placed around the main PA. Arterial blood gas sampling performed via the left femoral artery.
Online hemodynamic monitoring was accomplished using MacLab and a Macintosh IIci computer. The hemodynamic parameters that were measured included PA pressure (mm Hg), blood flow (ml/min), LA pressure (mm Hg), as well as arterial oxygen tension (mm Hg) during inspiration of 100% oxygen; pO2 was analyzed with a model ABL-2 dissolved gas analyzer (Radiometer, Copenhagen, Denmark). Pulmonary vascular resistances (PVRs) were calculated as [mean PA pressure-LA pressure]/PA flow. The native lung supported the recipient during the period of warm ischemia (the period during which the donor lung was removed from cold preservation until the time of reperfusion, <10 min. in all instances), but immediately following rapid hemodynamic instrumentation and acquisition of baseline measurements, the native (right) PA was then ligated, and serial measurements (representative solely of the transplanted lung) were taken every five minutes for 30 minutes. Because the native lung was effectively removed from the circulation by ligation of the right PA, these measurements represent function of the transplanted lung. Recipient death was identified by the cessation of cardiac mechanical activity observed through the thoracotomy.
Preservation solutions were freshly made and coded by a technician not otherwise involved in the experiments, according to a general plan which included both control and experimental groups. […]

[4] = test system: neutrophil accumulation in lung graft; assay: lung graft myeloperoxidase, nitroglycerin series; assay type: in vivo, rat; conditions: NTG 0.1 mg/mL in EC, 6 h
Protocol: (§1) Thirty minutes following ligation of the native right pulmonary artery, or at the time of recipient death, transplanted lungs were removed, rinsed briskly in physiologic saline, and snap frozen in liquid nitrogen until the time of myeloperoxidase or TBARs assay.
Tissue was homogenized in phosphate buffer (50 mM, pH 5.5, 5 ml/gm of tissue) containing hexadecyltrimethyl ammonium bromide (0.5%, Sigma). The assay was performed, as previously described^35, by thawing the sample, centrifuging at 40,000 g for 15 minutes, and decanting the supernatant, which was assayed for myeloperoxidase activity using a standard chromogenic spectrophotometric technique in which test sample (0.03 mL) was added to phosphate buffer (0.97 mL) containing O-dianisidinedihydrochloride (Sigma) and hydrogen peroxide (0.0005%), and change in absorbance at 460 nm was measured over 1 minute (increase in OD was linear over this time interval).

[5] = test system: graft tissue oxidant stress; assay: thiobarbituric acid reactive substances (TBARs); assay type: in vivo, rat; conditions: NTG in EC, 6 h
Protocol: as §1
The assay was performed by homogenizing tissue in 1.15% KCl (10 ml/gm of tissue). To 0.2 ml of 10% (w/v) tissue homogenate, the following was added; 0.2 mL of 8.1% sodium dodecyl sulfate (SDS; Sigma), 1.5 mL of 20% acetic acid solution (pH 3.5), 1.5 mL of 0.8% aqueous solution of thiobarbituric acid (Sigma), and 0.6 mL of double distilled water. This mixture was heated to 95° C. for 60 minutes followed by rapid cooling to room temperature. An organic extraction was performed by adding 1.0 mL of double distilled water and 5.0 mL of n-butanol:pyridine (15:1, v/v), vortexing, and then centrifuging at 4000 rpm for 10 minutes. The water-immiscible (organic) layer was recovered for measurement of absorbance at 532 nm. Experiments were performed using 1,1,3,3,-tetramethoxypropane as a standard, with the level of lipid peroxides expressed as nmol of malondialdehyde (MDA)/mg protein. Protein content was determined by the method of Lowry et. al^38.

cGMP = assay: tissue cGMP levels (radioimmunoassay, unpublished); conditions: NTG in preservation solution
lung [6] = assay: orthotopic rat left lung transplantation, nitroglycerin series; assay type: in vivo, rat (male Lewis)
[7] = 6 h in EC, 8-Br-cGMP 0.5 mM where added
[8] = 6 h in EC, NTG 0.1 mg/mL where added

SMILES	interaction with allosteric binding sites [1]	myeloperoxidase activity (dAbs 460 nm/min) [2] [dAbs 460 nm/min]	recipient survival (lung [3]; 4 h preservation in LR) [%]	arterial oxygenation (lung [3]; [7]) [mm Hg]	pulmonary arterial blood flow (lung [3]; [7]) [mL/min]	pulmonary vascular resistance (lung [3]; [7]) [Woods units×10^-3]	recipient survival (lung [3]; [7]) [%]	concentration of maximal beneficial effect (lung [3]; range 0.005 to 0.5 mM, 6 h in EC) [mM]	graft neutrophil accumulation [4]	graft oxidant stress, TBARs [5]	tissue cGMP levels (cGMP)	pulmonary artery flushing time (lung [6]; 30 mL at constant pressure during harvest) [s]	recipient survival (lung [6]; 6 h in EC, 30 min, supplements NTG 0.1 mg/mL, hydralazine 0.02 μg/mL) [%]	arterial oxygenation (lung [6]; [8]) [mm Hg]	pulmonary arterial flow (lung [6]; [8]) [mL/min]	pulmonary vascular resistance (lung [6]; [8])	concentration of maximal beneficial effect (lung [6]; range 0.001 to 0.1 mg/mL) [mg/mL]
Nc1nc2c(nc(Br)n2[C@@H]2O[C@@H]3COP(=O)(O)O[C@H]3[C@H]2O)c(=O)[nH]1 [8-Br-cGMP, 8-bromoguanosine-3'5' cyclic monophosphate]	does not interact with the allosteric binding sites	1.75±0.13	86	474±41	26 ± 2.3	1.1±0.14	100	0.5									
O=[N+]([O-])OCC(CO[N+](=O)[O-])O[N+](=O)[O-] [NTG, nitroglycerin]									significant decline in both neutrophil and platelet accumulation	reduced graft oxidant stress	augments tissue cGMP levels	86.4 ± 4.9	100	501±31	21.4 ± 2.9	1.4±0.1 ×10^3 Woods units	0.1
